Data: article PMC12469971 (Gels, 2025)
In brackets after ≈: the same amount, converted by molar mass. Several values for one entry are separate records, joined by “and”; a condition that tells them apart may be missing. Identical values can stand only once. Like-named read-outs stand apart in the source and are kept apart here.

Columns and labels:
C6 tumor cell line = assay: Cell apoptosis by Annexin V-FITC/PI flow cytometry; assay type: cell-based, Rattus norvegicus; conditions: C6, 7.5 µg/mL, 24 h
Description: (§1) The possible mechanism of action for the analyzed nanoparticles was established by determining the process of cellular apoptosis using flow cytometry, a method that enabled the assessment of the percentage of live, dead, pre-apoptotic, and apoptotic cells (Table S2 and Figure 8).
(§2) Apoptosis, also known as programmed cell death, is a natural process for eliminating cells. It involves the formation of membrane vesicles, chromatin condensation, and DNA fragmentation. Annexin V, which is a calcium-dependent protein, binds with high affinity to phosphatidylserine (PS), which moves from the inner to the outer membrane during apoptosis. When Annexin V is fluorescently labeled, this PS exposure can be detected using flow cytometry. The presence of PS signals macrophages to clear the cell through phagocytosis. […] In late apoptotic and necrotic cells, both the plasma and nuclear membrane integrity is compromised, enabling propidium iodide to penetrate the membrane, bind to nucleic acids, and produce red fluorescence. Cells were cultured in 24-well plates at a density of 50,000 cells per well to create a monolayer. After 24 h of incubation, test compounds (free drugs or nanoparticle formulations) were applied at a concentration of 7.5 µg/mL and incubated for an additional 24 h. Flow cytometry was used to process and analyze the cells according to the manufacturer’s instructions for the assay kit. For interpretation, cells that were negative for both propidium iodide (PI) and Annexin V were classified as viable; cells that were Annexin V-positive and PI-negative were considered apoptotic; and cells that were positive for both markers were identified as necrotic.

V79-4 normal cell line = assay: Cell apoptosis by Annexin V-FITC/PI flow cytometry; assay type: cell-based, Cricetulus griseus; conditions: V79-4, 7.5 µg/mL, 24 h
Description: as §1, §2

[1] = PAMPA-BBB permeability assay (kit PMBBB-096); assay type: in vitro ADME; conditions: for Papp at 18 h, 500 μM: PAMPA, 37 °C
Procedure: The in vitro parallel artificial permeability assay (PAMPA, Kit PMBBB-096 from BioAssay Systems (Hayward, CA, USA)) was employed to evaluate whether nanoparticles can cross the BBB. […] As a negative standard, we used the low-permeability (LP) and high-permeability (HP) standards from the PAMPA-BBB kit from Bioassay.
Specifically, the PMBBB-096 (BioAssay Systems Hayward, CA, USA) kit supports in vitro assessment of BBB permeability. […] Three hundred microliters (300 μL) of 0.01 M PBS with 5% DMSO was added to the acceptor plate (96-well PTFE acceptor plates) (BioAssay Systems Hayward, CA, USA). The donor plate (96-well polycarbonate filter-based donor plates, pore size 0.45 μm) was coated with 5 μL of lyophilized brain lipid extract solution, made by dissolving the brain extract in 400 μL of dodecane. […] In parallel, 200 μM equilibrium standards were prepared in separate Eppendorf tubes for each test and control sample. In Eppendorf tubes, 80 μL of test solutions or the control standard at a concentration of 500 μM were mixed with 120 μL of PBS solution containing 5% DMSO. The blank was prepared using the PBS solution with 5% DMSO. The next day, equilibrium standards and the blank solution were utilized, and the acceptor compartment’s solution was analyzed. […] Based on the absorbance value determined for each respective test sample and the permeability control standard, the permeability rate (Pe) was calculated using the following Equation (4):(4) Pe=C×−ln1−ODA/ODE,cm/s where ODA represents the absorbance of the acceptor plate solution minus the absorbance of the blank, and ODE indicates the absorbance of the equilibrium standard minus the absorbance of the blank.

Cytotoxicity, MTT assay = conditions: Chinese hamster, V79-4 lung fibroblasts (ATCC CCL-93), 48 h; for viability at 48 h, 1.875 μg/mL: Cell viability (%) V79-4, 1.875 μg/mL (nanoparticles or free drug); for viability at 48 h, 3.75 μg/mL: Cell viability (%) V79-4, 3.75 μg/mL; for viability at 48 h, 7.5 μg/mL: Cell viability (%) V79-4, 7.5 μg/mL; for viability at 48 h, 15 μg/mL: Cell viability (%) V79-4, 15 μg/mL
Procedure: (§3) This IC50 value was derived from a graph plotting the percentage of dead cells against the drug concentration in the samples. […] A lower IC50 value indicates the higher cytotoxicity of the samples.
(§4) In both cases, the growth media were supplemented with 10% fetal bovine serum (SFB, Euroclone S.p.A., Milan, Italy) and 1% antibiotic solution, containing penicillin at […] and streptomycin at 100 IU/mL (Capricorn Scientific GmbH, Ebsdorfergrund, Germany), maintained at a temperature of 37 °C in a humidified environment with 5% CO2 [130]. Products tested: Albumin nanoparticles obtained through self-assembly and crosslinking with OG were evaluated.
(§5) This method relies on the conversion of MTT, a water-soluble yellow compound, into dark blue, water-insoluble formazan by the mitochondrial dehydrogenases of living cells. […] After treatment, the medium was removed, the cells were washed with phosphate-buffered saline (PBS), and then incubated with 100 μL of fresh medium and 10 μL of MTT (5 mg/mL) for 3 h at 37 °C. The resulting formazan crystals were solubilized with 50 μL of DMSO, and absorbance was measured at 570 nm using the EZ Read 400 reader (Biochrom, Cambridge, UK). The intensity of the resulting color directly correlates with the number of viable cells, and viability was calculated using Equation (6):Cell viability (%) = Esample/Econtrol × 100, where E = extinction(6)

C6 tumor cells = assay: Cytotoxicity, MTT assay; conditions: for viability at 1.875 µg/mL / viability at 3.75 µg/mL / viability at 7.5 µg/mL / viability at 15 µg/mL / IC50: Rattus norvegicus; for viability at 1.875 µg/mL / viability at 3.75 µg/mL / viability at 7.5 µg/mL / viability at 15 µg/mL / Percentage of dead cells per C6 cell line (cytotoxic effect): 48 h; for viability at 1.875 µg/mL: read-out: Cell viability (%) C6, 1.875 μg/mL (nanoparticles or free drug), 48 h; for viability at 3.75 µg/mL: read-out: Cell viability (%) C6, 3.75 μg/mL, 48 h; for viability at 7.5 µg/mL: read-out: Cell viability (%) C6, 7.5 μg/mL, 48 h; for viability at 15 µg/mL: read-out: Cell viability (%) C6, 15 μg/mL, 48 h; for IC50: C6, 48 h
Procedure: as §3, §4, §5

normal V79-4 cells = assay: Cytotoxicity, MTT assay; conditions: for Percentage of dead cells per V79-4 cell line (cytotoxic effect): 48 h; for IC50: Cricetulus griseus, V79-4, 48 h
Procedure: as §3, §4, §5

[2] = pH stability of free and encapsulated curcumin; assay type: physicochemical; parameters: degradation rate constant k: unit: h⁻¹; conditions: dark; for half-life at 4 μg/mL: read-out: degradation half-life t1/2 (converted)
Procedure: The samples were maintained at 37 °C in the dark, in closed containers, for 8 h. […] The particles were maintained at 37 °C in an oven (AG-System, F.lli Galli G. & P., Milano, Italia) protected from light and air exposure. […] The amount of curcumin found in the samples was then determined using a Nanodrop spectrophotometer. […] The half-life (t1/2) for first-order reactions depends solely on the degradation rate constant, k, and is independent of the substance’s initial concentration. All measurements were conducted in triplicate, and the results are reported as average values ± standard deviation (STDev).

[3] = Light stability of free and encapsulated curcumin (natural light and air); assay type: physicochemical
Procedure: The analyzed HSA nanoparticles were weighed and then exposed to air and natural light for 30 days in Petri dishes. […] All determinations were performed in triplicate, and the results are presented as mean values ± standard deviation (STDev).

[4] = parameters: method as in PMID 32494134, PMID 35684445, PMID 25751368; conditions: rapidly hydrolyzed in physiological conditions; cited from earlier work
[5] = Antioxidant activity, DPPH assay; assay type: biochemical; conditions: not UV-irradiated; curcumin concentration; 40 min
Procedure: The samples were vortexed for 20 to 30 s, and their absorbance was measured at 517 nm after 40 min using a UV spectrophotometer (BOECO S-22) (BOECO, Hamburg, Germany). Ethanol is used for calibration, and ascorbic acid serves as a standard for antioxidant activity.
The percentage of DPPH inhibition for each sample type was determined, and the IC50 values were calculated based on the concentration (μg/mL) vs. inhibition plots. Ascorbic acid was used as a standard. All measurements were performed in triplicate at room temperature.

[6] = read-out: IC50 μg/mL for TMZ/CURC on the C6 Cell Line
[7] = read-out: IC50 μg/mL for TMZ/CURC on the V79-4 Cell Line

COc1cc(/C=C/C(=O)CC(=O)/C=C/c2ccc(O)c(OC)c2)ccc1O [Curcumin, curcumin]
Apoptotic cells (%) (C6 tumor cell line): 35.64%
Dead cells (%) (C6 tumor cell line): 14.33%
Living cells (%) (C6 tumor cell line): 37.92%
Preapoptotic cells (%) (C6 tumor cell line): 12.11%
Apoptotic cells (%) (V79-4 normal cell line): 27.09%
Dead cells (%) (V79-4 normal cell line): 17.93%
Living cells (%) (V79-4 normal cell line): 43.47%
Papp at 18 h, 500 μM ([1]; pH 7.4, Permeability rate, Pe (Curcumin), PAMPA-BBB, read at 425 nm): 0.21 ×10⁻⁶ cm/s
viability at 48 h, 1.875 μg/mL (Cytotoxicity, MTT assay): 75.8%
viability at 48 h, 3.75 μg/mL (Cytotoxicity, MTT assay): 60.9%
viability at 48 h, 7.5 μg/mL (Cytotoxicity, MTT assay): 52.7%
viability at 48 h, 15 μg/mL (Cytotoxicity, MTT assay): 41.6%
viability at 1.875 µg/mL (C6 tumor cells): 62.3%
viability at 3.75 µg/mL (C6 tumor cells): 55.8%
viability at 7.5 µg/mL (C6 tumor cells): 39.2%
viability at 15 µg/mL (C6 tumor cells): 37.4%
IC50 (C6 tumor cells; [6]): 6.31 µg/mL (≈ 17.1 µM)
IC50 (C6 tumor cells; read-out: IC50 for μg/mL for CURC on the C6 Cell Line): 6.31 µg/mL (≈ 17.1 µM)
Percentage of dead cells per C6 cell line (cytotoxic effect) (C6 tumor cells; rat, 1.875 μg/mL): 37.66%
Percentage of dead cells per C6 cell line (cytotoxic effect) (C6 tumor cells; rat, 3.75 μg/mL): 44.22%
Percentage of dead cells per C6 cell line (cytotoxic effect) (C6 tumor cells; rat, 7.5 μg/mL): 60.84%
Percentage of dead cells per C6 cell line (cytotoxic effect) (C6 tumor cells; rat, 15 μg/mL): 62.63%
Percentage of dead cells per V79-4 cell line (cytotoxic effect) (normal V79-4 cells; 1.875 μg/mL): 24.21%
Percentage of dead cells per V79-4 cell line (cytotoxic effect) (normal V79-4 cells; 3.75 μg/mL): 39.14%
Percentage of dead cells per V79-4 cell line (cytotoxic effect) (normal V79-4 cells; 7.5 μg/mL): 47.33%
Percentage of dead cells per V79-4 cell line (cytotoxic effect) (normal V79-4 cells; 15 μg/mL): 58.41%
IC50 (normal V79-4 cells; read-out: IC 50 μg/mL for CURC on the V79-4 Cell Line): 10.4 µg/mL (≈ 28.1 µM)
IC50 (normal V79-4 cells; [7]): 10.4 µg/mL (≈ 28.1 µM)
half-life at 4 μg/mL ([2]; buffer solution (pH 3), pH 3, 37 °C): 7.7 h
half-life at 4 μg/mL ([2]; buffer solution (pH 9), pH 9, 37 °C): 2.3 h
half-life at 4 μg/mL ([2]; buffer solution, pH 6.8, 37 °C): 6.5 h
half-life at 4 μg/mL ([2]; buffer solution, pH 7.4, 37 °C): 5.8 h
Undegraded Curcumin (%) 1 h ([2]; pH 3, 37 °C): 76%
Undegraded Curcumin (%) 5 h ([2]; pH 3, 37 °C): 55.7%
Undegraded Curcumin (%) 8 h ([2]; pH 3, 37 °C): 47.6%
degradation rate constant k ([2]; pH 3, 37 °C): 0.091
Undegraded Curcumin (%) 1 h ([2]; pH 6.8, 37 °C): 76.4%
Undegraded Curcumin (%) 5 h ([2]; pH 6.8, 37 °C): 56.8%
Undegraded Curcumin (%) 8 h ([2]; pH 6.8, 37 °C): 43.7%
degradation rate constant k ([2]; pH 6.8, 37 °C): 0.107
Undegraded Curcumin (%) 1 h ([2]; pH 7.4, 37 °C): 77%
Undegraded Curcumin (%) 5 h ([2]; pH 7.4, 37 °C): 52.7%
Undegraded Curcumin (%) 8 h ([2]; pH 7.4, 37 °C): 41.1%
degradation rate constant k ([2]; pH 7.4, 37 °C): 0.119
Undegraded Curcumin (%) 1 h ([2]; pH 9, 37 °C): 61%
Undegraded Curcumin (%) 5 h ([2]; pH 9, 37 °C): 21%
Undegraded Curcumin (%) 8 h ([2]; pH 9, 37 °C): 8.6%
degradation rate constant k ([2]; pH 9, 37 °C): 0.301
Percentage of Degradation of curcumin, Day 3 [3]: 6.8%
Percentage of Degradation of curcumin, Day 10 [3]: 13.5%
Percentage of Degradation of curcumin, Day 18 [3]: 16.9%
Percentage of Degradation of curcumin, Day 26 [3]: 26%
Percentage of Degradation of curcumin, Day 30 [3]: 32.3%

Cn1nnc2c(C(N)=O)ncn2c1=O [TMZ, temozolomide]
Apoptotic cells (%) (C6 tumor cell line): 33.59%
Dead cells (%) (C6 tumor cell line): 16.45%
Living cells (%) (C6 tumor cell line): 40.08%
Preapoptotic cells (%) (C6 tumor cell line): 9.88%
Apoptotic cells (%) (V79-4 normal cell line): 24.86%
Dead cells (%) (V79-4 normal cell line): 15.17%
Living cells (%) (V79-4 normal cell line): 49.36%
Preapoptotic cells (%) (V79-4 normal cell line): 10.61%
Papp at 18 h, 500 μM ([1]; pH 7.4, PAMPA-BBB, read at 327 nm, read-out: Permeability rate, Pe (TMZ)): 0.76 ×10⁻⁶ cm/s
BBB permeability category ([1]; PAMPA-BBB, in words): low permeability
viability at 48 h, 1.875 μg/mL (Cytotoxicity, MTT assay): 75.8%
viability at 48 h, 3.75 μg/mL (Cytotoxicity, MTT assay): 67%
viability at 48 h, 7.5 μg/mL (Cytotoxicity, MTT assay): 60.4%
viability at 48 h, 15 μg/mL (Cytotoxicity, MTT assay): 54.5%
Percentage of dead cells per C6 cell line (cytotoxic effect) (C6 tumor cells; 1.875 μg/mL): 37.7% and 34.88%
Percentage of dead cells per C6 cell line (cytotoxic effect) (C6 tumor cells; 3.75 μg/mL): 42.5%
Percentage of dead cells per C6 cell line (cytotoxic effect) (C6 tumor cells; 7.5 μg/mL): 47.05%
Percentage of dead cells per C6 cell line (cytotoxic effect) (C6 tumor cells; 15 μg/mL): 60.95% and 59.18%
viability at 1.875 µg/mL (C6 tumor cells): 62.3%
viability at 3.75 µg/mL (C6 tumor cells): 57.5%
viability at 7.5 µg/mL (C6 tumor cells): 53%
viability at 15 µg/mL (C6 tumor cells): 39%
IC50 (C6 tumor cells; read-out: IC50 μg/mL for TMZ on the C6 Cell Line): 8.75 µg/mL (≈ 45.1 µM)
IC50 (C6 tumor cells; [6]): 8.75 µg/mL (≈ 45.1 µM)
Percentage of dead cells per V79-4 cell line (cytotoxic effect) (normal V79-4 cells; 1.875 μg/mL): 24.16%
Percentage of dead cells per V79-4 cell line (cytotoxic effect) (normal V79-4 cells; 3.75 μg/mL): 33.05%
Percentage of dead cells per V79-4 cell line (cytotoxic effect) (normal V79-4 cells; 7.5 μg/mL): 39.64%
Percentage of dead cells per V79-4 cell line (cytotoxic effect) (normal V79-4 cells; 15 μg/mL): 45.53%
IC50 (normal V79-4 cells; read-out: IC50 μg/mL for TMZ on the V79-4 Cell Line): 16.8 µg/mL (≈ 86.7 µM)
IC50 (normal V79-4 cells; [7]): 16.8 µg/mL (≈ 86.7 µM)
half-life [4]: 1.8 h

O=C1O[C@H]([C@@H](O)CO)C(O)=C1O [Ascorbic acid, ascorbic acid]
IC50 (DPPH) [5]: 4.3 µg/mL (≈ 24.4 µM)
